# From US12257246B2, “Composition of 2,4,6-trifluoro-n-[6-(1-methyl-piperidin-4-carbonyl)-pyridin-2-yl[-benzamide” (CoLucid Pharmaceuticals, Inc., priority 2009, dated 2025)
# Entries after “also recorded” stand apart in the source; their conditions may differ. Marks after values point to notes of the source that are not given here.
# Test system: migraine attack
# Experiment: Intravenous dose-finding study in acute migraine: headache response (moderate or severe becoming mild or none) and secondary efficacy
# Format: in vivo, human
# Protocol: Preclinical and early clinical experiments predict acute anti-migraine efficacy of Compound I that is mediated through a non-vascular, primarily neural, mechanism. In a multi-centre, placebo-controlled, double-blind, group-sequential, adaptive treatment-assignment, proof-of-concept and dose-finding study, 130 patients were treated in-hospital during a migraine attack. Patients were allocated to an intravenous dose level of Compound I or placebo in small cohorts. The starting dose was 2.5 mg. Subsequent doses were adjusted, up or down, according to the safety and efficacy seen in the preceding cohort. The primary outcome measure was headache response defined as improvement from moderate or severe headache at baseline to mild or no headache at 2 hours post-dose. The study was designed to explore the overall dose response relationship but was not powered to differentiate individual doses from placebo, nor to detect effect differences for other migraine symptoms.
# The study used a prospective, randomized, double-blind, placebo-controlled design with group-sequential adaptive-treatment assignment (Olesen J et al., N Engl J Med 2004: 350: 1104-10; Hall D B et al., Contemporary Clinical Trials 2005; 26: 349-63). […] The first cohort was allocated to the 2.5 mg dose level. The dose used in subsequent cohorts depended on the headache response (moderate or severe headache reduced to mild or none at 2 hours) of the previous cohort: if 2 or less of the 4 active-treated patients had responded, the dose was increased, and if 3 or more of the 4 active-treated patients had responded, the dose was reduced. The dose adjustment rules were chosen to identify doses of Compound I with efficacy similar to or better than an oral triptan. […] The occurrence of a drug-related serious adverse event would lead to automatic suspension of the randomization pending a safety review.
# Patients were initially screened for eligibility at an out-patient visit outside a migraine attack, and were invited to return to the clinic for treatment with study medication of a new, moderate or severe migraine attack within 4 hours of onset. On return to the clinic, eligibility for the study was reconfirmed and the patient was randomized. Patients were eligible for the study if they were between 18 and 65 years of age and had at least a 1 year history of migraine with or without aura fulfilling the IHS diagnostic criteria 1.1 and 1.2.1 (2004), with a migraine onset before the age of 50 years (Headache Classification Subcommittee of the International Headache Society. The International Classification of Headache Disorders (second edition). Cephalalgia 2004: 24; Supp11:1-160). Patients had to be experiencing between 1 and 8 migraine attacks a month and not be using migraine prophylactic medication. Patients were in good general health and had no evidence of vascular disease or hypertension. Patients with previous intolerance of triptans were excluded. Pregnant or breast-feeding women were excluded, as were women of childbearing potential who were not using a highly reliable form of contraception.
# On return of the patient to the clinic, instructions for dilution of study drug were obtained from an online randomization system by a pharmacist or other study personnel, independent of the investigator, and the study drug for infusion was prepared. Both investigator and pharmacist were blinded with regard to active or placebo and only the pharmacist knew the dilution. All patients received a 60 ml intravenous infusion over 20 minutes. Efficacy and safety data before and after administration of study drug were entered immediately into an electronic data capture system, so allowing the headache response to be used to drive dose-allocation for subsequent cohorts.
# Data were entered concurrently into an online electronic data capture system. Patients were discharged from the clinic after 4 h and continued to record migraine symptoms and adverse events until 24 h using a diary card. […]
smiles,measurement,setting,value
"CN1CCC(C(=O)c2cccc(NC(=O)c3c(F)cc(F)cc3F)n2)CC1 [Compound I, 2,4,6-trifluoro-N-[6-(1-methyl-piperidin-4-ylcarbonyl)-pyridin-2-yl]-benzamide]",Impression: very much/much better 2h,2.5 mg iv,75.0% of Patients
same,Nausea 2 h,2.5 mg iv,25.0% of Patients
same,No/mild disability 2 h,2.5 mg iv,75.0% of Patients
same,Pain freedom 2 h,2.5 mg iv,0.0% of Patients
same,Phonophobia 2 h,2.5 mg iv,25.0% of Patients
same,Photophobia 2 h,2.5 mg iv,25.0% of Patients
same,Sustained pain free,2.5 mg iv,0.0% of Patients
same,Sustained pain response,2.5 mg iv,50.0% of Patients
same,"Use of rescue medication, 2-24 h",2.5 mg iv,25.0% of Patients
same,Proportion of Patients with headache response,"2.5 mg iv, 10 min post dose",0.0% of Patients
same,Proportion of Patients with headache response,"2.5 mg iv, 20 min post dose",0.0% of Patients
same,Proportion of Patients with headache response,"2.5 mg iv, 40 min post dose",0.0% of Patients
same,Proportion of Patients with headache response,"2.5 mg iv, 60 min post dose",50.0% of Patients
same,Proportion of Patients with headache response,"2.5 mg iv, 90 min post dose",50.0% of Patients
same,Proportion of Patients with headache response,"2.5 mg iv, 120 min post dose",50.0% of Patients
same,Proportion of Patients with headache response,"2.5 mg iv, 180 min post dose",50.0% of Patients
same,Proportion of Patients with headache response,"2.5 mg iv, 240 min post dose",75.0% of Patients
same,Impression: very much/much better 2h,5 mg iv,8.3% of Patients
same,Nausea 2 h,5 mg iv,41.7% of Patients
same,No/mild disability 2 h,5 mg iv,16.6% of Patients
same,Pain freedom 2 h,5 mg iv,0.0% of Patients
same,Phonophobia 2 h,5 mg iv,41.7% of Patients
same,Photophobia 2 h,5 mg iv,75.0% of Patients
same,Sustained pain free,5 mg iv,0.0% of Patients
same,Sustained pain response,5 mg iv,8.3% of Patients
same,"Use of rescue medication, 2-24 h",5 mg iv,91.7% of Patients
same,Proportion of Patients with headache response,"5 mg iv, 10 min post dose",8.3% of Patients
same,Proportion of Patients with headache response,"5 mg iv, 20 min post dose",16.7% of Patients
same,Proportion of Patients with headache response,"5 mg iv, 40 min post dose",25.0% of Patients
same,Proportion of Patients with headache response,"5 mg iv, 60 min post dose",25.0% of Patients
same,Proportion of Patients with headache response,"5 mg iv, 90 min post dose",25.0% of Patients
same,Proportion of Patients with headache response,"5 mg iv, 120 min post dose",16.7% of Patients
same,Proportion of Patients with headache response,"5 mg iv, 180 min post dose",25.0% of Patients
same,Proportion of Patients with headache response,"5 mg iv, 240 min post dose",33.3% of Patients
same,Impression: very much/much better 2h,10 mg iv,37.5% of Patients
same,Nausea 2 h,10 mg iv,12.5% of Patients
same,No/mild disability 2 h,10 mg iv,54.2% of Patients
same,Pain freedom 2 h,10 mg iv,20.8% of Patients
same,Phonophobia 2 h,10 mg iv,25.0% of Patients
same,Photophobia 2 h,10 mg iv,45.8% of Patients
same,Sustained pain free,10 mg iv,12.5% of Patients
same,Sustained pain response,10 mg iv,33.3% of Patients
same,"Use of rescue medication, 2-24 h",10 mg iv,58.3% of Patients
same,Proportion of Patients with headache response,"10 mg iv, 10 min post dose",8.3% of Patients
same,Proportion of Patients with headache response,"10 mg iv, 20 min post dose",25.0% of Patients
same,Proportion of Patients with headache response,"10 mg iv, 40 min post dose",37.5% of Patients
same,Proportion of Patients with headache response,"10 mg iv, 60 min post dose",50.0% of Patients
same,Proportion of Patients with headache response,"10 mg iv, 90 min post dose",45.8% of Patients
same,Proportion of Patients with headache response,"10 mg iv, 120 min post dose",54.2% of Patients
same,Proportion of Patients with headache response,"10 mg iv, 180 min post dose",54.2% of Patients
same,Proportion of Patients with headache response,"10 mg iv, 240 min post dose",54.2% of Patients
same,onset of headache relief,20 mg and 30 mg iv,speed onset of headache relief; also recorded: rapid onset of headache relief
same,Impression: very much/much better 2h,20 mg iv,42.9% of Patients
same,Nausea 2 h,20 mg iv,21.4% of Patients
same,No/mild disability 2 h,20 mg iv,57.1% of Patients
same,Pain freedom 2 h,20 mg iv,28.6% of Patients
same,Phonophobia 2 h,20 mg iv,25.0% of Patients
same,Photophobia 2 h,20 mg iv,42.9% of Patients
same,Sustained pain free,20 mg iv,17.9% of Patients
same,Sustained pain response,20 mg iv,35.7% of Patients
same,"Use of rescue medication, 2-24 h",20 mg iv,53.6% of Patients
same,Proportion of Patients with headache response,"20 mg iv, 10 min post dose",14.3% of Patients
same,Proportion of Patients with headache response,"20 mg iv, 20 min post dose",39.3% of Patients
same,Proportion of Patients with headache response,"20 mg iv, 40 min post dose",50.0% of Patients
same,Proportion of Patients with headache response,"20 mg iv, 60 min post dose",53.6% of Patients
same,Proportion of Patients with headache response,"20 mg iv, 90 min post dose",53.6% of Patients
same,Proportion of Patients with headache response,"20 mg iv, 120 min post dose",64.3% of Patients
same,Proportion of Patients with headache response,"20 mg iv, 180 min post dose",60.7* Percent of Patients
same,Proportion of Patients with headache response,"20 mg iv, 240 min post dose",57.1* Percent of Patients
same,Impression: very much/much better 2h,30 mg iv,68.8% of Patients
same,Nausea 2 h,30 mg iv,6.3% of Patients
same,No/mild disability 2 h,30 mg iv,75.1% of Patients
same,Pain freedom 2 h,30 mg iv,37.5% of Patients
same,Phonophobia 2 h,30 mg iv,25.0% of Patients
same,Photophobia 2 h,30 mg iv,25.0% of Patients
same,Sustained pain free,30 mg iv,18.8% of Patients
same,Sustained pain response,30 mg iv,56.3% of Patients
same,"Use of rescue medication, 2-24 h",30 mg iv,37.5% of Patients
same,"associated symptoms (photophobia, phonophobia, nausea)",30 mg iv,"reduced associated symptoms of photophobia, phonophobia, and nausea"
same,headache recurrence within 24 hours,30 mg iv,reduced headache recurrence
same,moderate or severe disability reported,30 mg iv,reduced the percent of moderate or severe disability reported
same,patient global impression 2 hours post dose,30 mg iv,increased the number of patients who felt much or very much better; also recorded: increase in the number of patients who felt much better or very much better
same,use of rescue medication,30 mg iv,reduced the use of rescue medication
same,pain free at 2 hours versus placebo,30 mg iv over 20 minutes,completely abolished headache in a greater number of patients than placebo; also recorded: completely abolishes headache (‘pain free’) in a greater number of patients than placebo
same,Proportion of Patients with headache response,"30 mg iv, 10 min post dose",12.5% of Patients
same,Proportion of Patients with headache response,"30 mg iv, 20 min post dose",50.0% of Patients
same,Proportion of Patients with headache response,"30 mg iv, 40 min post dose",75.0* Percent of Patients
same,Proportion of Patients with headache response,"30 mg iv, 60 min post dose",75.0* Percent of Patients
same,Proportion of Patients with headache response,"30 mg iv, 90 min post dose",68.8% of Patients
same,Proportion of Patients with headache response,"30 mg iv, 120 min post dose",68.8% of Patients
same,Proportion of Patients with headache response,"30 mg iv, 180 min post dose",68.8* Percent of Patients
same,Proportion of Patients with headache response,"30 mg iv, 240 min post dose",68.8* Percent of Patients
same,Impression: very much/much better 2h,45 mg iv,50.0% of Patients
same,Nausea 2 h,45 mg iv,25.0% of Patients
same,No/mild disability 2 h,45 mg iv,25.0% of Patients
same,Pain freedom 2 h,45 mg iv,25.0% of Patients
same,Phonophobia 2 h,45 mg iv,25.0% of Patients
same,Photophobia 2 h,45 mg iv,25.0% of Patients
same,Sustained pain free,45 mg iv,25.0% of Patients
same,Sustained pain response,45 mg iv,25.0% of Patients
same,"Use of rescue medication, 2-24 h",45 mg iv,25.0% of Patients
same,Proportion of Patients with headache response,"45 mg iv, 10 min post dose",75.0* Percent of Patients
same,Proportion of Patients with headache response,"45 mg iv, 20 min post dose",75.0% of Patients
same,Proportion of Patients with headache response,"45 mg iv, 40 min post dose",75.0% of Patients
same,Proportion of Patients with headache response,"45 mg iv, 60 min post dose",50.0% of Patients
same,Proportion of Patients with headache response,"45 mg iv, 90 min post dose",75.0% of Patients
same,Proportion of Patients with headache response,"45 mg iv, 120 min post dose",75.0% of Patients
same,Proportion of Patients with headache response,"45 mg iv, 180 min post dose",75.0% of Patients
same,Proportion of Patients with headache response,"45 mg iv, 240 min post dose",25.0% of Patients
same,time at which response starts to separate from placebo,"doses of 20 mg and above, after start of infusion",20 min
same,efficacy in acute treatment of migraine,intravenous doses of 20 mg and higher,proved effective
same,effective dose identified by predefined stopping rules,"iv over 20 min, primary endpoint",20 mg
